Results reported in patent US10179802B2 (priority 2014, dated 2019).

System: HVA calcium channel
Format: cell-based, rat

With `COC(=O)C1=C(C)NC(C)=C(C(=O)OC)C1c1ccccc1[N+](=O)[O-]` [Nifedipine] the current after loading was −734.31 pA, the current before loading was −1471.35 pA and the inhibition rate (10 µM) was 50.09%.
